# Measurements published in the METLIN SMRT retention time set (Domingo-Almenara et al. 2019).
# Experiment: gradient 5% acetonitrile 3 min, to 50% in 2 min, to 85% in 15 min, held 3 min, 100 µL/min
# Settings: column: Zorbax Extend-C18 2.1 x 50 mm; eluents: water / acetonitrile, 0.1% formic acid
# How it was run: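 Retention times of pure standards were taken from adduct peaks that were selected by computer and manually inspected. Over 3 months, mixtures of ~100 molecules were run by HPLC–quadrupole time-of-flight mass spectrometry in positive and negative ionization mode. The Zorbax Extend-C18 column (2.1 × 50 mm, 1.8 μm) ran at 100 μL/min in water and acetonitrile, each containing 0.1% formic acid, with 40 μL dead volume and 900 μL dwell volume.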
row,SMILES,RP-LC retention time [s]
1,COc1ccc(N2CC(C(=O)N3CC4CC3C(=O)O4)CC2=O)cc1 (stereo not given),598
2,CCN(Cc1c(C)nn(CC)c1C)C(=O)Cn1nc2n(c1=O)CCC(N)CC2 (stereo not given),551
3,CCCCCOC(=O)Nc1nc(=O)n(C2OC(C)C(O)C2O)cc1F (stereo not given),874
4,COc1cccc(-c2nc(-c3ccc4c(c3)oc(=O)n4C(C)C)no2)c1OC,1140
5,Cn1cccc1Cc1nnc(SCC(=O)NO)n1Cc1ccccc1,621
6,Cc1ccc(Cl)cc1NC(=O)N1CCCC1c1c(C)noc1C (stereo not given),853
7,COc1ccc(NC(=O)c2cc(S(=O)(=O)N3CCCC(C)C3)cn2C)c(OC)c1 (stereo not given),1010
8,COc1cc(C(=O)Nc2nc(-c3ccc4c(c3)NC(=O)C(C)O4)cs2)cc(OC)c1OC (stereo not given),903
9,COC(=O)c1ccc(NC(=O)N2CCCC2c2cc(C)on2)cc1 (stereo not given),739
10,O=C(Nc1ccccc1)N(Cc1cccnc1)C1CN(Cc2ccc(F)c(F)c2)C1,965
11,Cc1ccc(NC(=O)N2CCC(CC(=O)N3CCCCC3)CC2)cc1F,813
12,Cc1nnsc1C(=O)N1CCC2(CC1)OCCN2S(=O)(=O)c1ccc(Cl)cc1,817
13,COc1cccc(-c2ccnc3nc(-c4ccccc4)nn23)c1,919
14,Cc1c(C(=O)NCC(C)C)cnn1-c1cc(-c2nc(C(C)(C)C)no2)ccn1,1150
15,O=c1c2cc(-c3ccc(F)cc3)nn2cnn1Cc1nc(-c2ccc3c(c2)OCO3)no1,1220
16,CCOC(=O)c1ccc(N(C)c2csc(-c3ccccc3)n2)cc1,1270
17,CCCNC(=O)C1CCN(c2ccc(SCC(=O)Nc3cccc(C(F)(F)F)c3)nn2)CC1,723
18,CCC(=O)N1CCCC(C(=O)N2CCOCC2)C1 (stereo not given),564
19,COc1cccc(Sc2ccc(N3CCCC(C(=O)NCc4ccc5c(c4)OCO5)C3)nn2)c1 (stereo not given),826
20,Cc1cc(N2CCN(C(=O)Nc3ccc(F)c(Cl)c3)CC2)nc(N2CCOCC2)n1,665
21,Cc1ccc(C)c(S(=O)(=O)Nc2ccc(-c3cn4ccc(C)nc4n3)cc2)c1,678
22,Cc1cccc(CN2C(=O)CN(S(C)(=O)=O)CC2(C)C(=O)NCc2ccccc2)c1 (stereo not given),838

row,SMILES,RP-LC retention time [s]
1,Cc1cc(C)cc(NC(=O)C2CCN(S(=O)(=O)c3cc(C(=O)N4CCOCC4)cs3)CC2)c1,760
2,Cc1ccc(-n2nc(N3CCN(C(=O)Nc4ccccc4)CC3)ccc2=O)cc1,780
3,CC(Cc1ccccc1)(NC(=O)CN)c1ccccc1 (stereo not given),730
4,COc1cccc(CNC(=O)CN2C(=O)NC3(CCC(C(C)(C)C)CC3)C2=O)c1OC (stereo not given),943
5,CCC(C)NC(=O)c1cc2c(s1)CCN(C(=O)c1ccccc1)C2 (stereo not given),769
6,CCCc1noc(-c2cccn3c(CC(=O)N4CCOCC4)nnc23)n1,626
7,CCCCN1CCN(C(=O)c2cc(CC)n3nc(-c4ccccn4)cc3n2)CC1,614
8,COc1cccc2sc(NC(=O)c3coc4ccccc4c3=O)nc12,921
9,CS(=O)(=O)N1CCN(C(=O)c2nn(CC3CC3)c3c2CNCC3)CC1,558
10,COC(=O)c1cc(S(=O)(=O)N2CCCC2C(=O)Nc2ccccc2F)cn1C (stereo not given),844
11,Cc1nc(C)c(-c2ccc(=O)n(CCNC(=O)c3csc(-c4ccccc4)n3)n2)s1,683
12,O=C(CCC1CCCN(S(=O)(=O)c2ccccc2F)C1)NCc1cccs1 (stereo not given),908
13,COc1ccccc1N1CCN(C(=O)c2cc(NC(=O)C(C)C)cc3nc(C)ccc23)CC1,666
14,Cc1nnc(-c2nnc(NC3CCCCC3)c3ccccc23)o1,688
15,COc1ccc(S(=O)(=O)NCc2cccnc2-c2ccc(F)cc2)cc1,714
16,CCOc1cc(C(=O)Nc2ccc(F)cc2F)nc2c(F)cccc12,1350
17,CN(C)C1(CC2CC2)CCN(C(=O)C2CCCC2)CC1,604
18,O=C(NCCc1ccccc1)C1CCN(C(=O)c2ncn3c2COC(c2ccccc2)C3)CC1 (stereo not given),708
19,CCOc1ccc(-c2cc(=O)n(CCCC(=O)Nc3ccc(-n4cnnn4)cc3)cn2)cc1,696
20,CC1(C(=O)NC2CCCC2)Cn2cnc(C(=O)NCc3cccc(F)c3)c2C(=O)N1C1CC1 (stereo not given),753
21,Cc1cc(-c2ccc(S(=O)(=O)N3CCC(C(=O)NCC4CCCCC4)CC3)o2)n[nH]1,840
22,COc1cc(CNC(=O)C2CCN(Cc3cn(C)c4ccccc34)CC2)cc(OC)c1,674

row,SMILES,RP-LC retention time [s]
1,COc1ccc(S(=O)(=O)N2CCC(n3c(-c4ccoc4)nc4cccnc43)C2)cc1 (stereo not given),831
2,CO[C@H]1CN(C2CCN(Cc3ccc(C)o3)CC2)[C@H]1c1ccncc1,588
3,Cc1oc(C2CCN(S(=O)(=O)c3cc(F)ccc3F)CC2)nc1C(=O)N1CCCC1,926
4,O=C1C[C@@H]2OCC=C3C[N+]4([O-])CC[C@]56c7ccccc7N1[C@H]5[C@H]2[C@H]3C[C@@H]64 (stereo not given in full),639
5,O=C(Cn1c(=O)c2nncn2c2ncccc21)NCc1ccccc1Cl,662
6,CC(NC(=O)Cc1cccn1-c1ccc(Cl)cc1)c1ccccn1 (stereo not given),790
7,COc1ccc(-c2nc(NC(=O)c3ccc(-c4nc5ccccc5s4)s3)sc2C)cc1,1400
8,CC(C)N(Cc1ccccc1)C(=O)C1CCCN(c2ncnc3c2nc2n3CCCCC2)C1 (stereo not given),905
9,O=C(CCS(=O)(=O)c1ccccc1)N(Cc1ccccn1)Cc1ccco1,610
10,CC1CCN(C(CNC(=O)c2cc(-c3ccc4c(c3)OCCO4)on2)c2ccco2)CC1 (stereo not given),720
11,COCCNC(=O)C1CCN(C(=O)Nc2ccc(NC(=O)Nc3ccccc3)cc2)CC1,678
12,O=C(N1CCC(NS(=O)(=O)Cc2ccccc2)CC1)N1C[C@H]2C[C@H](C1)[C@H]1CCCC(=O)N1C2,649
13,CCN1C(=O)C2(CCN(S(=O)(=O)c3cc(F)ccc3C)CC2)c2ccccc21,1130
14,Cc1cc(-c2nnc(C3CC3)o2)c(C)n1CC(=O)NCc1ccc(F)cc1,784
15,CCn1cc(CC(=O)NCc2ccc3c(c2)OCO3)c2cccnc21,690
16,Cc1noc(C)c1S(=O)(=O)N1CCc2c(c(-c3nnc(-c4ccc(F)cc4)o3)nn2C)C1,910
17,COc1ccc(OCc2noc(CNC(=O)c3cc(C)oc3C)n2)cc1,817
18,CC(C)NC(=O)C1CCCN(c2nc3ncn(CC(=O)Nc4cccc(C(C)C)c4)c(=O)c3s2)C1 (stereo not given),791
19,COc1cn(CC(=O)NCc2ccc(F)cc2)c(CN2CCC(C)CC2)cc1=O,550
20,Cc1ccc(-n2nc(N3CCN(C(=O)c4cccs4)CC3)ccc2=O)cc1C,830
21,Cc1nc(-c2cc(S(=O)(=O)Nc3cccc(Br)c3)c(C)s2)cs1,1050
